Experimental data published in US11059789B2, “Isoquinoline-steroid conjugates and uses thereof” (priority 2018, dated 2021).
Where a name gives a salt, the structure may show the parent alone.

Columns and labels:
PTM = PTM assay; format: cell-based; details: HCl salt
Procedure: (§1) Inhibition of various kinases was assayed.

AKT1 = AKT1 (Homo sapiens (Human), UniProt P31749); experiment: Kinase assay AKT1; format: biochemical; details: HCl salt
Procedure: as §1

JAK1 = JAK1 (Homo sapiens (Human), UniProt P23458); experiment: Kinase assay JAK1; format: biochemical; details: HCl salt
Sequence of JAK1 (P23458 whole entry, species assumed): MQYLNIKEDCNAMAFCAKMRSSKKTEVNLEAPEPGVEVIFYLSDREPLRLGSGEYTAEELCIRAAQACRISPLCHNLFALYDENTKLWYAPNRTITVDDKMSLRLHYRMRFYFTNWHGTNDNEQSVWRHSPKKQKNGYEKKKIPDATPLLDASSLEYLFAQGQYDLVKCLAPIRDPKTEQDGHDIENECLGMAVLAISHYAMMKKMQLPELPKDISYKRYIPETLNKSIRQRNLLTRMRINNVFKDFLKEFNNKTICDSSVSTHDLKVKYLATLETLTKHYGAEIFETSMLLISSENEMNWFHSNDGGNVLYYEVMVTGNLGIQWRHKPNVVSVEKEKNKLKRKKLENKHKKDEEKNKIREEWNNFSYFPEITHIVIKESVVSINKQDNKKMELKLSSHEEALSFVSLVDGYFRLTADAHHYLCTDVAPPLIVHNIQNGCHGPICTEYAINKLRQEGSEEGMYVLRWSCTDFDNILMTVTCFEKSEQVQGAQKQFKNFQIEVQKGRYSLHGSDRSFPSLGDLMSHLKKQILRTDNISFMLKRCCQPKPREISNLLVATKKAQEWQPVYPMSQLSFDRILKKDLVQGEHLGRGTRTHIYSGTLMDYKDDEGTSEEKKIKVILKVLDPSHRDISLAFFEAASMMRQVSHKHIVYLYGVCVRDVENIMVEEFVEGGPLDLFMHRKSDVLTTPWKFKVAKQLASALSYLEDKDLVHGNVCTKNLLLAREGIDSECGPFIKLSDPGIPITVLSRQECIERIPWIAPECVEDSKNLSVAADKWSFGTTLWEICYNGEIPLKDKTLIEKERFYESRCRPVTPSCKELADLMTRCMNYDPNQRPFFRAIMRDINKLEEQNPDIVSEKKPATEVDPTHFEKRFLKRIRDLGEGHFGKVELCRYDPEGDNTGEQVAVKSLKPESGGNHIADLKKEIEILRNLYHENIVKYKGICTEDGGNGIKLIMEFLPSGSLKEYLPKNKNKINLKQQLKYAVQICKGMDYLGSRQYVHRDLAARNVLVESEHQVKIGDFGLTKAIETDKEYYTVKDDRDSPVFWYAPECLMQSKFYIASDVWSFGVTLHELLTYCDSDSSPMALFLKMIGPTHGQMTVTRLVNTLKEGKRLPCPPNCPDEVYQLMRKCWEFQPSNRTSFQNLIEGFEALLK
Procedure: as §1

JAK3 = JAK3 (Homo sapiens (Human), UniProt P52333); experiment: Kinase assay JAK3; format: biochemical; details: HCl salt
Sequence of JAK3 (P52333 whole entry, species assumed): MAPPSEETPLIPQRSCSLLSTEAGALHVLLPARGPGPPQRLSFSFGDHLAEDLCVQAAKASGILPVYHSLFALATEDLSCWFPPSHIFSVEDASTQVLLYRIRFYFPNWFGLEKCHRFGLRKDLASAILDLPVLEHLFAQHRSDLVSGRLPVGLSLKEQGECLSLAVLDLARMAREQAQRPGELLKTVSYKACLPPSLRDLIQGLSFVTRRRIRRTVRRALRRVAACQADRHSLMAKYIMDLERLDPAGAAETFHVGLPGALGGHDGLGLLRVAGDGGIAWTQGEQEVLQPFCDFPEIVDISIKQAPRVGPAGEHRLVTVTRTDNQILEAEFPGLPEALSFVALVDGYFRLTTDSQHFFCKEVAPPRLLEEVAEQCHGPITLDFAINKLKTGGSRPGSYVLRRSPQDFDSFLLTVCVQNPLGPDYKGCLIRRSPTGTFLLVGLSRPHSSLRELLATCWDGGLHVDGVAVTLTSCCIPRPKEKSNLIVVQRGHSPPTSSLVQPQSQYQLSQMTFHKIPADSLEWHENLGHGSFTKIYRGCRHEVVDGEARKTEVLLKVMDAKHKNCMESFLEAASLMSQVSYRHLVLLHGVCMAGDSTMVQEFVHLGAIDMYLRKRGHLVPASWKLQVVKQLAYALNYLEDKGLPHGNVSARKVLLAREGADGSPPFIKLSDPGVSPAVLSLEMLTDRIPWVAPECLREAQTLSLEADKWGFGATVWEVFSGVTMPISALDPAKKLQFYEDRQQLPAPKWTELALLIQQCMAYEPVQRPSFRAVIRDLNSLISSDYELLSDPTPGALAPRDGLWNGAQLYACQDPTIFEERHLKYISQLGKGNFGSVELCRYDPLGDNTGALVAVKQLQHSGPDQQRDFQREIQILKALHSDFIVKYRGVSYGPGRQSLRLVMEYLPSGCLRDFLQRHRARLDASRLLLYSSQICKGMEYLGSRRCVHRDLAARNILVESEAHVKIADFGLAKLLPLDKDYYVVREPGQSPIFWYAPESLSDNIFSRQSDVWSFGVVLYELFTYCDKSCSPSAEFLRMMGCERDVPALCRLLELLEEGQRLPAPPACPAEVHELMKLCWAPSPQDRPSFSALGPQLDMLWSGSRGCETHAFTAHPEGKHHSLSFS
Procedure: as §1

PKCe = PKCe (Homo sapiens (Human), UniProt Q02156); experiment: Kinase assay PKCe; format: biochemical; details: HCl salt
Procedure: as §1

PKA = PKA (Homo sapiens, UniProt P17612); experiment: Kinase assay PKA; format: biochemical; details: HCl salt
Procedure: as §1

PKCd = PKCd (Homo sapiens (Human), UniProt Q05655); experiment: Kinase assay PKCd; format: biochemical; details: HCl salt
Procedure: as §1

ROCK2 = ROCK2 (Homo sapiens (Human), UniProt O75116); experiment: Kinase assay ROCK2; format: biochemical; details: HCl salt
Sequence of ROCK2 (O75116 whole entry, species assumed): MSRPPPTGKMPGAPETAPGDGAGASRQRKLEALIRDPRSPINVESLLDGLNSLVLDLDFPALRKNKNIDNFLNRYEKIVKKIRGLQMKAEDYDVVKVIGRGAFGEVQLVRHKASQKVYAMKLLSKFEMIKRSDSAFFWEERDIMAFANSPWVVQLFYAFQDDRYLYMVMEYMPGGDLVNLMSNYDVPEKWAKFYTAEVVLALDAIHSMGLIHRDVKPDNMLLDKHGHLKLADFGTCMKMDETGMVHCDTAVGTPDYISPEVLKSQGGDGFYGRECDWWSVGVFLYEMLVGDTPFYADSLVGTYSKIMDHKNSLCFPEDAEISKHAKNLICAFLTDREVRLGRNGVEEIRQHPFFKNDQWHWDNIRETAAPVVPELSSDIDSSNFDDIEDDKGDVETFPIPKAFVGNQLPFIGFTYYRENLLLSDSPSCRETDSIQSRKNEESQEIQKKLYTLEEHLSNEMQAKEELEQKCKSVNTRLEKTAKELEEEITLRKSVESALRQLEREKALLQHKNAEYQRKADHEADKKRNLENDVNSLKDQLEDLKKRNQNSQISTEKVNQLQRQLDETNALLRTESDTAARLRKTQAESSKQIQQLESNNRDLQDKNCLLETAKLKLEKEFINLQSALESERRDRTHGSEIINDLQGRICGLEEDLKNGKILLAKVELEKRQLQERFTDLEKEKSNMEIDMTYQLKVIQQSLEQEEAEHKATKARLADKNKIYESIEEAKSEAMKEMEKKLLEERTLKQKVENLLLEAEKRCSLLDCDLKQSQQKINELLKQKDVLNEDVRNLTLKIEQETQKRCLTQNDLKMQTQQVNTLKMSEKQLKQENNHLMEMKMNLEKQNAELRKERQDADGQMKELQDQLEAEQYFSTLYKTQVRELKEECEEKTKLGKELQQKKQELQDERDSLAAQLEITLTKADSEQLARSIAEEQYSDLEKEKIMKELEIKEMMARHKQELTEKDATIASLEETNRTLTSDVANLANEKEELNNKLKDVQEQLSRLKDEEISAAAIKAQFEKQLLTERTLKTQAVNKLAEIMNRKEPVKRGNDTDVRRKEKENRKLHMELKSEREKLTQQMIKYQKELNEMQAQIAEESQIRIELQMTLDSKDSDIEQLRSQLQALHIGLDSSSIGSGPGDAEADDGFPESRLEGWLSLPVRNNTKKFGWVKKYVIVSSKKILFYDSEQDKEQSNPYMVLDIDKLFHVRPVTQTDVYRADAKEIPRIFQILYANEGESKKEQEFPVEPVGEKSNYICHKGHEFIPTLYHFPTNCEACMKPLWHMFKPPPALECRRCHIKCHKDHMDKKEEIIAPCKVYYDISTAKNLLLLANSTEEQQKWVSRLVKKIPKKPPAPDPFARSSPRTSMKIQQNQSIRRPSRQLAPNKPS
Procedure: as §1

IKKb = IKKb (Homo sapiens (Human), UniProt O14920); experiment: Kinase assay IKKb; format: biochemical; details: HCl salt
Procedure: as §1

NFkB = NFkB assay; format: cell-based; details: HCl salt
Procedure: as §1

ROCK1 = ROCK1 (Homo sapiens (Human), UniProt Q13464); experiment: Kinase assay ROCK1; format: biochemical; details: HCl salt
Procedure: as §1

TYK2 = TYK2 (Homo sapiens (Human), UniProt P29597); experiment: Kinase assay TYK2; format: biochemical; details: HCl salt
Procedure: as §1

PKCh = PKCh (Homo sapiens (Human), UniProt P24723); experiment: Kinase assay PKCh; format: biochemical; details: HCl salt
Sequence of PKCh (P24723 whole entry): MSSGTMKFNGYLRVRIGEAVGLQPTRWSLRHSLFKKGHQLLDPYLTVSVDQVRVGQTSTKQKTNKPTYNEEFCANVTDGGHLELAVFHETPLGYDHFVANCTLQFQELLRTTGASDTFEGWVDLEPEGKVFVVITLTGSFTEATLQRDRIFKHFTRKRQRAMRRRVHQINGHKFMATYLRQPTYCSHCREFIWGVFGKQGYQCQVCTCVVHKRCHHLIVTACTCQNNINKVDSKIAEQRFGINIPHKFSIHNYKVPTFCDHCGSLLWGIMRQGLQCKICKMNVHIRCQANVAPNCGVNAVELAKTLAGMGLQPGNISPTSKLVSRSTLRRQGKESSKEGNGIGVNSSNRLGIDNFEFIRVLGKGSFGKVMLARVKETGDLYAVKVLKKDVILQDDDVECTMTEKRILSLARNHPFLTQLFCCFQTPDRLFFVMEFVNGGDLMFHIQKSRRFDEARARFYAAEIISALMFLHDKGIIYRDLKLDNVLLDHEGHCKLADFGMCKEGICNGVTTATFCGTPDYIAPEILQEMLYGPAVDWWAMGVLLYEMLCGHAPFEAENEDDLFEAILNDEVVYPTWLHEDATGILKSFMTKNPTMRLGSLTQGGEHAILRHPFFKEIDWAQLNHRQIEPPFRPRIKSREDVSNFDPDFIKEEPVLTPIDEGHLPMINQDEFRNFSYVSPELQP
Procedure: as §1

HTM = HTM assay; format: cell-based; details: HCl salt
Procedure: as §1

[1] = tested on: RAW264.7 immortalized murine macrophages; experiment: TNFα secretion assay (LPS-induced, ELISA); format: cell-based; details: RAW264.7 cells, 4 hrs
Procedure: The TNFα assay quantifies secreted TNFα from RAW264.7 immortalized murine macrophages as an indicator of inflammation. The cells were concurrently treated with LPS (as an inducer of inflammation) and a titration of test molecules or control compounds for 4 hrs. After the incubation period, the media was harvested and assayed via an ELISA assay. ODs of experimental samples are fit to those of a standard curve to extrapolate the TNFα concentration. IC50 values were calculated by fitting a curve to experimental values with the controls as the top and bottom limits of the curve. Selected compounds provided herein were subjected to this assay.

JAK2 = JAK2 (Homo sapiens (Human), UniProt O60674); experiment: Kinase assay JAK2; format: biochemical; details: HCl salt
in vitro = format: cell-based

Sequence of AKT1 (P31749 whole entry, species assumed): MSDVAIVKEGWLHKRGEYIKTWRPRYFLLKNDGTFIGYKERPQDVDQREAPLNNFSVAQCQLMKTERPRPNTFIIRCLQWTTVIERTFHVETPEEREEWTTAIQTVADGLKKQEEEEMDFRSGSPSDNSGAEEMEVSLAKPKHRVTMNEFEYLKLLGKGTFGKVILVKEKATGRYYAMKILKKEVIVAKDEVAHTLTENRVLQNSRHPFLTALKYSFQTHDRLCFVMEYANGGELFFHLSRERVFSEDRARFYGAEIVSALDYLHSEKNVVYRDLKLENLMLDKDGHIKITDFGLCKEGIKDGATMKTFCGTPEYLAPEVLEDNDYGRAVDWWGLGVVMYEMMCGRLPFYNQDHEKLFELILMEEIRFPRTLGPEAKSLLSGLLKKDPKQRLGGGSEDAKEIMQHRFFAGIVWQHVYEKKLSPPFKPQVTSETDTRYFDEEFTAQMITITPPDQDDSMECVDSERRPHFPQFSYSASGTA

## CC1(C)O[C@@H]2C[C@H]3[C@@H]4C[C@H](F)C5=CC(=O)C=C[C@]5(C)[C@@]4(F)[C@@H](O)C[C@]3(C)[C@]2(C(=O)COC(=O)CCC(=O)OCc2ccc([C@@H](CN)C(=O)Nc3ccc4cnccc4c3)cc2)O1 [Example 40]
PTM
  IC50: 217 nM
AKT1
  IC50: 523 nM
JAK1
  IC50: 50000 nM
JAK3
  IC50: 17700 nM
PKCe
  IC50: 244 nM
PKA
  IC50: 71 nM
PKCd
  IC50: 152 nM
ROCK2
  IC50: 13 nM
IKKb
  IC50: 32900 nM
NFkB
  IC50: 28 nM
ROCK1
  IC50: 19 nM
TYK2
  IC50: 50000 nM
PKCh
  IC50: 190 nM
HTM
  IC50: 11 nM

## CC(C)(C)OC(=O)NCC(C(=O)Nc1ccc2cnccc2c1)c1ccc(CCOC(=O)CCC(=O)OCC(=O)[C@@]23OC(C)(C)O[C@@H]2C[C@H]2[C@@H]4C[C@H](F)C5=CC(=O)C=C[C@]5(C)[C@@]4(F)[C@@H](O)C[C@@]23C)cc1 (some centres unmarked) [Example 31]
[1]; Mus musculus
  IC50: 5460 nM

## CN(C)C(C(=O)Nc1ccc2cnccc2c1)c1ccc(COC(=O)CCC(=O)OCC(=O)[C@@]23OC(C)(C)O[C@@H]2C[C@H]2[C@@H]4C[C@H](F)C5=CC(=O)C=C[C@]5(C)[C@@]4(F)[C@@H](O)C[C@@]23C)cc1 (some centres unmarked) [Example 23]
[1]; Mus musculus
  IC50: 4.5 nM

## C[C@@H]1C[C@H]2[C@@H]3CCC4=CC(=O)C=C[C@]4(C)[C@@]3(F)[C@@H](O)C[C@]2(C)[C@@]1(O)C(=O)COC(=O)C1CC1C(=O)OCc1ccc([C@@H](CN)C(=O)Nc2ccc3cnccc3c2)cc1 (some centres unmarked) [Example 27]
PTM
  IC50: 145 nM
AKT1
  IC50: 2640 nM
JAK1
  IC50: 50000 nM
JAK3
  IC50: 11600 nM
PKCe
  IC50: 3460 nM
JAK2
  IC50: 41700 nM
PKA
  IC50: 317 nM
PKCd
  IC50: 509 nM
ROCK2
  IC50: 13 nM
IKKb
  IC50: 46800 nM
NFkB
  IC50: 1790 nM
ROCK1
  IC50: 29 nM
TYK2
  IC50: 50000 nM
PKCh
  IC50: 331 nM
In vitro
  IC50: 100000 nM
HTM
  IC50: 6 nM

## C[C@@H]1C[C@H]2[C@@H]3CCC4=CC(=O)C=C[C@]4(C)[C@@]3(F)[C@@H](O)C[C@]2(C)[C@@]1(O)C(=O)COC(=O)CCC(=O)OCc1ccc(C(CCNC(=O)OC(C)(C)C)C(=O)Nc2ccc3cnccc3c2)cc1 (some centres unmarked) [Example 11]
[1]; Mus musculus
  IC50: 429 nM

## C[C@@H]1C[C@H]2[C@@H]3CCC4=CC(=O)C=C[C@]4(C)[C@@]3(F)[C@@H](O)C[C@]2(C)[C@@]1(O)C(=O)COC(=O)c1cccc([C@@H]2C[C@H]2C(=O)Nc2ccc3cnccc3c2F)c1 [Example 91]
[1]
  IC50: 102 nM

## C[C@@H]1C[C@H]2[C@@H]3CCC4=CC(=O)C=C[C@]4(C)[C@@]3(F)[C@@H](O)C[C@]2(C)[C@@]1(O)C(=O)COC(=O)C[C@H](N)C(=O)OCc1ccc([C@@H](CN)C(=O)Nc2ccc3cnccc3c2)cc1 [Example 83, 1-(4-((S)-3-amino-1-(isoquinolin-6-ylamino)-1-oxopropan-2-yl)benzyl) 4-(2-((8S,9R,10S,11S,13S,14S,16R,17R)-9-fluoro-11,17-dihydroxy-10,13,16-trimethyl-3-oxo-6,7,8,9,10,11,12,13,14,15,16,17-dodecahydro-3H-cyclopenta[a]phenanthren-17-yl)-2-oxoethyl) L-aspartate trihydrochloride]
PTM
  IC50: 43 nM
AKT1
  IC50: 95 nM
JAK1
  IC50: 34700 nM
JAK3
  IC50: 7730 nM
PKCe
  IC50: 154 nM
JAK2
  IC50: 22000 nM
PKA
  IC50: 29 nM
PKCd
  IC50: 56 nM
ROCK2
  IC50: 9 nM
IKKb
  IC50: 19200 nM
NFkB
  IC50: 55 nM
ROCK1
  IC50: 11 nM
TYK2
  IC50: 50000 nM
PKCh
  IC50: 51 nM
In vitro
  IC50: 100000 nM
HTM
  IC50: 25 nM

## C[C@@H]1C[C@H]2[C@@H]3CCC4=CC(=O)C=C[C@]4(C)[C@@]3(F)[C@@H](O)C[C@]2(C)[C@@]1(O)C(=O)COC(=O)c1ccc(C(=O)OCc2ccc([C@@H](CN)C(=O)Nc3ccc4cnccc4c3)cc2)cc1 [Example 66, 4-((S)-3-amino-1-(isoquinolin-6-ylamino)-1-oxopropan-2-yl)benzyl (2-((8S,9R,10S,11S,13S,14S,16R,17R)-9-fluoro-11,17-dihydroxy-10,13,16-trimethyl-3-oxo-6,7,8,9,10,11,12,13,14,15,16,17-dodecahydro-3H-cyclopenta[a]phenanthren-17-yl)-2-oxoethyl) terephthalate dihydrochloride]
PTM
  IC50: 358 nM
AKT1
  IC50: 1360 nM
JAK1
  IC50: 50000 nM
JAK3
  IC50: 43200 nM
PKCe
  IC50: 3610 nM
JAK2
  IC50: 36200 nM
PKA
  IC50: 117 nM
PKCd
  IC50: 357 nM
ROCK2
  IC50: 26 nM
IKKb
  IC50: 50000 nM
NFkB
  IC50: 55 nM
ROCK1
  IC50: 36 nM
TYK2
  IC50: 50000 nM
PKCh
  IC50: 282 nM
In vitro
  IC50: 100000 nM
HTM
  IC50: 15 nM

## C[C@@H]1C[C@H]2[C@@H]3CCC4=CC(=O)C=C[C@]4(C)[C@@]3(F)[C@@H](O)C[C@]2(C)[C@@]1(O)C(=O)COC(=O)CCC(=O)OCc1ccc(C(CNC(=O)OC(C)(C)C)C(=O)Nc2ccc3cnccc3c2)cc1 (stereo partly drawn) [Example 4, 4-(3-((tert-butoxycarbonyl)amino)-1-(isoquinolin-6-ylamino)-1-oxopropan-2-yl)benzyl (2-((8S,9R,10S,11S,13S,14S,16R,17R)-9-fluoro-11,17-dihydroxy-10,13,16-trimethyl-3-oxo-6,7,8,9,10,11,12,13,14,15,16,17-dodecahydro-3H-cyclopenta[a]phenanthren-17-yl)-2-oxoethyl) succinate]
[1]; Mus musculus
  IC50: 230 nM

## C[C@]12C=CC(=O)C=C1CC[C@@H]1[C@@H]2[C@@H](O)C[C@@]2(C)[C@H]1CC[C@]2(O)C(=O)COC(=O)C1CC1C(=O)OCc1ccc([C@@H](CN)C(=O)Nc2ccc3cnccc3c2)cc1 (some centres unmarked) [Example 19]
PTM
  IC50: 706 nM
AKT1
  IC50: 2540 nM
JAK1
  IC50: 9570 nM
JAK3
  IC50: 2570 nM
PKCe
  IC50: 4160 nM
PKA
  IC50: 332 nM
PKCd
  IC50: 589 nM
ROCK2
  IC50: 27 nM
IKKb
  IC50: 50000 nM
NFkB
  IC50: 10000 nM
ROCK1
  IC50: 58 nM
TYK2
  IC50: 50000 nM
PKCh
  IC50: 436 nM

## C[C@@H]1C[C@H]2[C@@H]3CCC4=CC(=O)C=C[C@]4(C)[C@@]3(F)[C@@H](O)C[C@]2(C)[C@@]1(O)C(=O)COC(=O)C1CC1C(=O)OCCc1ccc(C(CN)C(=O)Nc2ccc3cnccc3c2)cc1 (some centres unmarked) [Example 37]
[1]; Mus musculus
  IC50: 3100 nM

## C[C@@H]1C[C@H]2[C@@H]3CCC4=CC(=O)C=C[C@]4(C)[C@@]3(F)[C@@H](O)C[C@]2(C)[C@@]1(O)C(=O)COC(=O)CCC(=O)OCc1ccc(C(CCN)C(=O)Nc2ccc3cnccc3c2)cc1 (some centres unmarked) [Example 12]
[1]; Mus musculus
  IC50: 90.5 nM

## CN(C)C(C(=O)Nc1ccc2cnccc2c1)c1ccc(COC(=O)CCC(=O)OCC(=O)[C@@]2(O)CC[C@H]3[C@@H]4CCC5=CC(=O)C=C[C@]5(C)[C@H]4[C@@H](O)C[C@@]32C)cc1 (some centres unmarked) [Example 21]
[1]; Mus musculus
  IC50: 1650 nM

## C[C@@H]1C[C@H]2[C@@H]3CCC4=CC(=O)C=C[C@]4(C)[C@@]3(F)[C@@H](O)C[C@]2(C)[C@@]1(O)C(=O)COC(=O)CCC(=O)OCc1ccc(C(C(=O)Nc2ccc3cnccc3c2)N(C)C)cc1 (some centres unmarked) [Example 20]
[1]; Mus musculus
  IC50: 144 nM

## C[C@@H]1C[C@H]2[C@@H]3CCC4=CC(=O)C=C[C@]4(C)[C@@]3(F)[C@@H](O)C[C@]2(C)[C@@]1(O)C(=O)COC(=O)c1cccc([C@@H]2C[C@H]2C(=O)Nc2ccc3cnccc3c2)c1 [Example 90, 2-((8S,9R,10S,11S,13S,14S,16R,17R)-9-fluoro-11,17-dihydroxy-10,13,16-trimethyl-3-oxo-6,7,8,9,10,11,12,13,14,15,16,17-dodecahydro-3H-cyclopenta[a]phenanthren-17-yl)-2-oxoethyl 3-((1R,2R)-2-(isoquinolin-6-ylcarbamoyl)cyclopropyl)benzoate]
[1]; Mus musculus
  IC50: 300 nM

## CC(C)(C)OC(=O)NC[C@@H](C(=O)Nc1ccc2cnccc2c1)c1ccc(COC(=O)CCC(=O)OCC(=O)[C@@]23OC(C)(C)O[C@@H]2C[C@H]2[C@@H]4CCC5=CC(=O)C=C[C@]5(C)[C@@]4(F)[C@@H](O)C[C@@]23C)cc1 [Example 29]
[1]; Mus musculus
  IC50: 71 nM

## CN(C)C(C(=O)Nc1ccc2cnccc2c1)c1ccc(COC(=O)CCC(=O)OCC(=O)[C@@]23OC(C)(C)O[C@@H]2C[C@H]2[C@@H]4CCC5=CC(=O)C=C[C@]5(C)[C@@]4(F)[C@@H](O)C[C@@]23C)cc1 (some centres unmarked) [Example 28]
[1]; Mus musculus
  IC50: 15.5 nM

## CC(C)(C)OC(=O)NC[C@@H](C(=O)Nc1ccc2cnccc2c1)c1ccc(COC(=O)CCC(=O)OCC(=O)[C@@]2(O)CC[C@H]3[C@@H]4CCC5=CC(=O)C=C[C@]5(C)[C@H]4[C@@H](O)C[C@@]32C)cc1 [Example 14]
[1]; Mus musculus
  IC50: 620 nM

## C[C@@H]1C[C@H]2[C@@H]3CCC4=CC(=O)C=C[C@]4(C)[C@@]3(F)[C@@H](O)C[C@]2(C)[C@@]1(O)C(=O)COC(=O)CCC(=O)OCCc1ccc(C(CN)C(=O)Nc2ccc3cnccc3c2)cc1 (some centres unmarked) [Example 26]
[1]; Mus musculus
  IC50: 227 nM
